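Five compound concentrations were applied to cells in 96-well plates for 48 hours; endpoints were derived by simple linear interpolation of the resulting dose-response curve. GI50 = concentration required for 50% inhibition of growth.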 The source made the active and inactive calls. No stated cut-off is given here; in the data, active = GI50 up to about 1.1 µM and inactive = higher.
Legend:
Assay in all cases: NCI anticancer screen, dose series, 48 h
SF-539 = tested on: SF-539
UO-31 = tested on: UO-31
786-0 = tested on: 786-0
K562 = tested on: K562
HCT-15 = tested on: HCT-15
TK-10 = tested on: TK-10
SNB-75 = tested on: SNB-75
SR = tested on: SR
HCT-116 = tested on: HCT-116
DMS-114 = tested on: DMS-114
KM-20L2 = tested on: KM-20L2
SK-OV-3 = tested on: SK-OV-3
SNB-19 = tested on: SNB-19
OVCAR-4 = tested on: OVCAR-4
A549 = tested on: A549
SK-MEL-5 = tested on: SK-MEL-5
COLO 205 = tested on: COLO 205
NCI-H460 = tested on: NCI-H460
SK-MEL-2 = tested on: SK-MEL-2
RPMI-8226 = tested on: RPMI-8226
OVCAR-5 = tested on: OVCAR-5
HT-29 = tested on: HT-29
DLD-1 = tested on: DLD-1
A498 = tested on: A498
NCI-H226 = tested on: NCI-H226
HOP-62 = tested on: HOP-62
SW-620 = tested on: SW-620
ACHN = tested on: ACHN
NCI-H23 = tested on: NCI-H23
NCI-H522 = tested on: NCI-H522
HOP-18 = tested on: HOP-18
EKVX = tested on: EKVX
MOLT-4 = tested on: MOLT-4
UACC-62 = tested on: UACC-62
DMS-273 = tested on: DMS-273
SF-295 = tested on: SF-295
SN12C = tested on: SN12C
OVCAR-8 = tested on: OVCAR-8
KM12 = tested on: KM12
LXFL 529 = tested on: LXFL 529
HOP-92 = tested on: HOP-92
IGROV-1 = tested on: IGROV-1
CAKI-1 = tested on: CAKI-1
M14 = tested on: M14
SF-268 = tested on: SF-268
UACC-257 = tested on: UACC-257
RXF 393 = tested on: RXF 393
OVCAR-3 = tested on: OVCAR-3
Malme-3M = tested on: Malme-3M
SNB-78 = tested on: SNB-78
HCC 2998 = tested on: HCC 2998
U-251 = tested on: U-251
LOX IMVI = tested on: LOX IMVI
SK-MEL-28 = tested on: SK-MEL-28
CCRF-CEM = tested on: CCRF-CEM

Measured: GI50

O=C(O)c1ccccc1Cc1ccco1
> 100 µM: HCT-15
inactive: SF-539 > 100 µM | UO-31 > 100 µM | 786-0 > 100 µM | K562 > 100 µM | TK-10 > 100 µM | SNB-75 > 100 µM | SR > 100 µM | HCT-116 > 100 µM | DMS-114 > 100 µM | KM-20L2 > 100 µM | SK-OV-3 > 100 µM | SNB-19 > 100 µM | OVCAR-4 > 100 µM | A549 > 100 µM | SK-MEL-5 > 100 µM | COLO 205 > 100 µM | NCI-H460 > 100 µM | SK-MEL-2 > 100 µM | RPMI-8226 > 100 µM | OVCAR-5 > 100 µM | HT-29 > 100 µM | DLD-1 > 100 µM | A498 > 100 µM | NCI-H226 > 100 µM | HOP-62 > 100 µM | SW-620 > 100 µM | ACHN > 100 µM | NCI-H23 > 100 µM | NCI-H522 > 100 µM | HOP-18 > 100 µM | EKVX > 100 µM | MOLT-4 > 100 µM | UACC-62 > 100 µM | DMS-273 > 100 µM | SF-295 > 100 µM | SN12C > 100 µM | OVCAR-8 > 100 µM | KM12 > 100 µM | LXFL 529 > 100 µM | HOP-92 > 100 µM | IGROV-1 > 100 µM | CAKI-1 > 100 µM | M14 > 100 µM | SF-268 > 100 µM | UACC-257 > 100 µM | RXF 393 > 100 µM | OVCAR-3 > 100 µM | Malme-3M > 100 µM | SNB-78 > 100 µM | HCC 2998 > 100 µM | U-251 > 100 µM

Cc1cnc(SCCN2CCN(C)CC2)nc1-c1cc2ccccc2s1
inactive: SF-539 12.6 µM | UO-31 7.78 µM | 786-0 12 µM | TK-10 17.4 µM | SNB-75 12.2 µM | LOX IMVI 5.09 µM | SR 2.48 µM | HCT-116 11.4 µM | DMS-114 7.66 µM | SK-OV-3 3.77 µM | OVCAR-4 16.7 µM | A549 4.62 µM | SK-MEL-5 3.46 µM | COLO 205 14.3 µM | NCI-H460 3.51 µM | SK-MEL-2 16.1 µM | OVCAR-5 > 10 µM | HT-29 6.03 µM | DLD-1 12.6 µM | A498 15.3 µM | NCI-H226 11.9 µM | SK-MEL-28 16.2 µM | SW-620 11.9 µM | NCI-H23 16.3 µM | NCI-H522 14.7 µM | MOLT-4 2.52 µM | UACC-62 16.2 µM | DMS-273 4.93 µM | SF-295 9.14 µM | SN12C 9.02 µM | OVCAR-8 12.6 µM | KM12 16.3 µM | LXFL 529 13.8 µM | HOP-92 5.53 µM | IGROV-1 > 10 µM | CAKI-1 1.51 µM | M14 13.2 µM | UACC-257 10.3 µM | RXF 393 10.1 µM | OVCAR-3 5.98 µM | Malme-3M 17 µM | CCRF-CEM 3.18 µM | SNB-78 16.7 µM | HCC 2998 13.3 µM | U-251 8.36 µM
10.5 µM: HCT-15
active: HOP-62 0.155 µM | HOP-18 < 0.01 µM

From ChEMBL document CHEMBL1201862, “PubChem BioAssay data set” (2004)
